Inhibition of growth data for four molecules are collected here from patent US5455356A, “Fungicidal 1-aryl-1-[α-(triazolyl)alkyl]-1-silacycloalkanes and their preparation methods” (priority 1993, dated 1995).

What all share (format): cell-based
For one assay, the system named is Phytophthora capsisi. Briefly: In vitro mycelial/spore growth on potato-sucrose-agar, percent disease control (PC). To be noted: read-out: % controlled, PC. In short, it runs like this:
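Compounds at 100 ppm and 50 ppm (10% acetone in water) mixed into potato-sucrose-agar, with the fungus spotted at the centre and incubated for several days. Percent control derived from the radii of spore growth.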

In a further assay the test system is Botryosphaeri. Briefly: In vitro mycelial/spore growth on potato-sucrose-agar, percent disease control (BD). To be noted: read-out: % controlled, BD. The procedure, abridged:
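Compounds at 100 ppm and 50 ppm (10% acetone in water) mixed into potato-sucrose-agar, with Botryosphaeria spotted centrally and incubated for several days. Percent disease control calculated from growth radii.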

For another assay, the system named is GC. Briefly: In vitro mycelial/spore growth on potato-sucrose-agar, percent disease control (GC). As to conditions: read-out: % controlled, GC; for inhibition of growth at 50 ppm: GC. The procedure, abridged: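 Compounds dissolved in acetone (10% of final volume) and water at 100 and 50 ppm, mixed into potato-sucrose-agar. Fungus spotted at plate centre and incubated several days in a growth room; percent disease control derived from the radii of growth.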

The next assay concerns Pyricalaria oryzae. Briefly: In vitro mycelial/spore growth on potato-sucrose-agar, percent disease control (PO). As to conditions: read-out: % controlled, PO. In short, it runs like this:
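Compounds at 100 ppm and 50 ppm (10% acetone in water) mixed into potato-sucrose-agar, with Pyricalaria oryzae spotted centrally. After several days' incubation in a growth room, percent disease control derived from spore growth radii.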

The subject of another assay is Rhizoctonia solani. In words: In vitro mycelial/spore growth on potato-sucrose-agar, percent disease control (RS, first column). As to conditions: read-out: % controlled, RS. In short, it runs like this:
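Compounds applied at 100 ppm and 50 ppm (10% acetone in water), mixed into potato-sucrose-agar with fungus spotted centrally. Incubated several days in growth room. Percent disease control derived from radii of spore growth.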

Another assay has as its system Fusarium moniliforme. Briefly: In vitro mycelial/spore growth on potato-sucrose-agar, percent disease control (FM). To be noted: Fusarium verticillioides, Fusarium moniliforme, read-out: % controlled, FM. The procedure, abridged: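 Compounds at 100 and 50 ppm, in water containing 10% acetone, were mixed into potato-sucrose agar, and the fungus was spotted centrally. Plates were incubated several days in a growth room. Percent control was derived from growth radii.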

The subject of the next assay is Rhizopus sp. In words: In vitro mycelial/spore growth on potato-sucrose-agar, percent disease control (RS, second column). As to conditions: read-out: % controlled, RS; for inhibition of growth at 50 ppm: Rhizopus sp.; for inhibition of growth at 200 ppm: Rhizopus. The procedure, abridged:
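Compound dissolved in acetone (10% of final volume) and water at 100 ppm and 50 ppm, mixed into potato-sucrose-agar. Rhizopus sp. spotted centrally and grown several days in a growth room; percent disease control derived from spore growth radii.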

A further assay deals with Botritis cinerea. Briefly: In vitro mycelial/spore growth on potato-sucrose-agar, percent disease control (BC). To be noted: read-out: % controlled, BC. In short, it runs like this:
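Compounds dissolved in acetone (10% of final volume) then water to 100 and 50 ppm, mixed into potato-sucrose-agar, and B. cinerea spotted centrally. After several days in a growth room, percent disease control calculated from spore growth radii.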

Regarding `CC(n1cncn1)[Si]1(c2ccc(F)cc2F)CCCCC1` (stereo not drawn) [1-(2,4-difluorophenyl)-1-[α-(1H-1,2,4-triazole-1-yl)ethyl]-1-silacyclohexane], the inhibition of growth at 50 ppm in the assay with Phytophthora capsisi was determined as 82%; in the assay on Botryosphaeri it was 100%; in the assay with GC, 100%; in the assay with Pyricalaria oryzae it was 100%; in the assay with Rhizoctonia solani, 96%; in the assay with Fusarium moniliforme it was 100%. The inhibition of growth at 50 ppm with Rhizopus sp. amounted to 53%; in the assay on Botritis cinerea, 100%. Besides, the inhibition of growth at 200 ppm in the assay with Phytophthora capsisi, in the assay on Botryosphaeri, in the assay on GC, in the assay on Pyricalaria oryzae, in the assay with Rhizoctonia solani and in the assay on Fusarium moniliforme was 100% throughout. Moreover, the inhibition of growth at 200 ppm is 79% in the assay with Rhizopus sp. and 100% in the assay on Botritis cinerea.

`COc1ccc([Si]2(C(C)n3cncn3)CCCC2)cc1` (stereo not drawn) [1-(4-methoxyphenyl)-1-[α-(1H-1,2,4-triazole-1-yl)ethyl]-1-silacyclopentane]: the inhibition of growth at 50 ppm in the assay with Phytophthora capsisi is 50%; in the assay on Botryosphaeri it was 71%; in the assay with GC, 100%; in the assay on Pyricalaria oryzae, 100%; with Rhizoctonia solani it was 100%; in the assay with Fusarium moniliforme, 94%. Moreover, the results for the inhibition of growth at 50 ppm in the assay on Rhizopus sp. and in the assay with Botritis cinerea were 59% and 81%, respectively. Moreover, the inhibition of growth at 200 ppm in the assay with Phytophthora capsisi was found to be 90%; with Botryosphaeri, 96%; in the assay with GC, 100%; in the assay with Pyricalaria oryzae, 100%; in the assay on Rhizoctonia solani, 100%; in the assay on Fusarium moniliforme it was 99%. The inhibition of growth at 200 ppm in the assay with Rhizopus sp. was 80%; in the assay with Botritis cinerea, 95%.

For `CC(n1cncn1)[Si]1(c2ccc(-c3ccccc3)cc2)CCCC1` (stereo not drawn) [1-(4-biphenyl)-1-[α-(1H-1,2,4-triazole-1-yl)ethyl]-1-silacyclopentane], the inhibition of growth at 50 ppm in the assay on Phytophthora capsisi is 80%; in the assay with Botryosphaeri it was 100%; in the assay on GC, 100%; with Pyricalaria oryzae it was 100%; in the assay with Rhizoctonia solani, 100%; in the assay with Fusarium moniliforme, 97%. Besides, the values for the inhibition of growth at 50 ppm in the assay with Rhizopus sp. and with Botritis cinerea were 86% and 100%, respectively. The inhibition of growth at 200 ppm in the assay on Phytophthora capsisi, with Botryosphaeri, with GC, in the assay with Pyricalaria oryzae, in the assay with Rhizoctonia solani and in the assay with Fusarium moniliforme was 100% each time. Further, the inhibition of growth at 200 ppm in the assay with Rhizopus sp. stood at 90%; in the assay with Botritis cinerea, 100%.

Regarding `CCOc1ccc([Si]2(Cn3cncn3)CCCCC2)cc1` [1-(4-ethoxyphenyl)-1-(1H-1,2,4-triazole-1-yl)methyl-1-silacyclohexane], the inhibition of growth at 50 ppm in the assay with Phytophthora capsisi came to 65%; in the assay on Botryosphaeri it was 79%; in the assay with GC, 100%; in the assay on Pyricalaria oryzae it was 100%; with Rhizoctonia solani, 94%; in the assay with Fusarium moniliforme it was 73%. Besides, the figures for the inhibition of growth at 50 ppm in the assay with Rhizopus sp. and in the assay on Botritis cinerea were 54% and 74%, respectively. Also, the inhibition of growth at 200 ppm in the assay with Phytophthora capsisi was found to be 87%; in the assay on Botryosphaeri, 100%; in the assay with GC it was 100%; with Pyricalaria oryzae it was 100%; in the assay with Rhizoctonia solani, 100%; in the assay with Fusarium moniliforme it was 99%. In addition, the inhibition of growth at 200 ppm in the assay with Rhizopus sp. was 85%; with Botritis cinerea it was 94%.
